Measurements: PubChem BioAssay (NCI)
“And” between values parts separate entries of the source, which are not always exact repeats. Equal values may be shown once.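 48-hour exposure; five concentrations; linearly interpolated endpoints. The concentration for 50% growth inhibition is given as GI50. The concentration for full growth arrest is given as TGI.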

Experiments:
Assay in all cases: NCI-60 cell line screen, 48 h
COLO 205 colon = tested on: COLO 205 colon
K-562 leukemia = tested on: K-562 leukemia
NCI-H460 lung = tested on: NCI-H460 lung
SNB-19 CNS = tested on: SNB-19 CNS
TK-10 renal = tested on: TK-10 renal
U251 CNS = tested on: U251 CNS
UACC-257 melanoma = tested on: UACC-257 melanoma
UACC-62 melanoma = tested on: UACC-62 melanoma
SK-MEL-2 melanoma = tested on: SK-MEL-2 melanoma
SR leukemia = tested on: SR leukemia

SMILES | TGI (COLO 205 colon) | GI50 (K-562 leukemia) [µM] | TGI (K-562 leukemia) [µM] | TGI (NCI-H460 lung) [µM] | TGI (SNB-19 CNS) [µM] | TGI (TK-10 renal) [µM] | TGI (U251 CNS) [µM] | TGI (UACC-257 melanoma) [µM] | TGI (UACC-62 melanoma) [µM] | GI50 (COLO 205 colon) [µM] | GI50 (NCI-H460 lung) [µM] | GI50 (SK-MEL-2 melanoma) [µM] | TGI (SR leukemia) [µM] | GI50 (TK-10 renal) [µM] | GI50 (UACC-257 melanoma) [µM] | GI50 (UACC-62 melanoma) [µM] | TGI (SK-MEL-2 melanoma) [µM] | GI50 (SNB-19 CNS) [µM] | GI50 (SR leukemia) [µM] | GI50 (U251 CNS) [µM]
C=CC(=O)NC(N)=NC#N | 280 µM | 136 | 445 | 360 | 523 | 272 | 296 | 249 | 294 | – | – | – | – | – | – | – | – | – | – | –
COc1cccc(-c2cc(=O)c3cc(N4CCOCC4)ccc3[nH]2)c1 | 0.0463 µM and 0.234 µM | 0.0267 | 0.179 | > 100 | – | > 100 | – | > 100 | – | 0.0353 | 0.272 | 0.0937 | 0.741 | 4.84 | 0.02 | 0.041 | – | – | – | –
C#CC(=O)Nc1cccc2c1cc(C)n2-c1nc2c(c(NCc3ccccc3)n1)CCCC2 | 0.803 µM | 0.368 | 3.45 | 2.59 | 2.66 | 3.09 | 0.338 | – | 0.351 | 0.267 | 0.759 | 1.25 | 0.0507 | 1.66 | – | 0.165 | 2.92 | 0.845 | < 0.0201 | 0.178
O=C(O)c1ccc(C(O)(c2ccccc2)c2ccccc2)cc1 | > 100 µM | – | > 100 | – | > 100 | > 100 | > 100 | > 100 | > 100 | – | – | – | > 100 | – | – | – | – | – | – | –
Cc1cc(N2CCCCC2)nc(NC2CCCC(Nc3ccnc4cc(Cl)ccc34)C2)n1 (centres undefined) | 2.98 µM | 0.316 | 1.23 | 2.86 | 3.44 | 4.25 | – | 3.55 | – | 1.44 | 1.39 | – | – | 2.07 | 1.92 | – | – | 1.58 | – | –
CCOC(=O)C(CCC(N)=O)(CCC(=O)OC)C(=O)OCC | > 100 µM | – | > 100 | > 100 | > 100 | > 100 | > 100 | > 100 | > 100 | – | – | – | > 100 | – | – | – | – | – | – | –
CCn1c2ccccc2c(=O)c2c(OC)ccc(OC)c21 | > 100 µM | – | > 100 | > 100 | > 100 | – | > 100 | > 100 | > 100 | – | – | – | > 100 | – | – | – | > 100 | – | – | –
CC(=O)OCCOCNC(=S)N/N=C/c1cc([N+](=O)[O-])ccc1O | > 100 µM | – | > 100 | > 100 | > 100 | > 100 | > 100 | > 100 | > 100 | – | – | – | – | – | – | – | > 100 | – | – | –
COc1ccc(/C=C2\COc3ccc(O)c(O)c3C2=O)c(OC)c1OC | 10 µM | 2.11 | > 100 | 5.75 | 15.7 | 23.3 | 11.2 | 18.3 | 3.88 | 2.78 | 2.4 | 4.7 | – | 4.03 | 2.88 | 1.88 | 31.1 | 3.69 | – | 2.66
C[C@@H](NS(=O)(=O)c1ccc(NC(=O)c2ccccc2)cc1)C(=O)O | > 100 µM | – | > 100 | > 100 | > 100 | > 100 | > 100 | > 100 | > 100 | – | – | – | – | – | – | – | > 100 | – | – | –
COc1ccc(C(=NN=C(N)N)c2ccc(OC)cc2)cc1 | 3.97 µM | 3.7 | 15.4 | 11 | 16.4 | 14.5 | 14.1 | 25.1 | 14.1 | 1.79 | 3.04 | 2.51 | – | 4.26 | 7.24 | 3.54 | 12.6 | 3.72 | – | 3.72
Cc1[nH]c2ccccc2c1CC/C(=N\Nc1ccccc1)c1ccccc1 | – | – | > 100 | > 100 | – | > 100 | > 100 | > 100 | > 100 | – | – | – | – | – | – | – | > 100 | – | – | –
Cc1ccc(/C=C(\NC(=O)c2ccccc2)c2nc3ccccc3[nH]2)cc1 | > 100 µM | – | – | > 100 | > 100 | > 100 | > 100 | > 100 | > 100 | – | – | – | > 100 | – | – | – | 80.1 | – | – | –
COc1c(/C=C/C=O)cc2c(c1OC)OCO2 | > 100 µM | – | – | > 100 | 44.8 | > 100 | 84.1 | > 100 | 57 | – | – | – | 64.8 | – | – | – | 57.4 | – | – | –
CC(=O)O[C@H]1CCN2C(=O)C=CC(OCc3ccccc3)C12 (some centres undefined) | > 100 µM | – | > 100 | > 100 | – | > 100 | > 100 | > 100 | > 100 | – | – | – | – | – | – | – | > 100 | – | – | –
COc1cc(CNCCN2C(=O)c3ccc4c5c(ccc(c35)C2=O)C(=O)N(CCNCc2cc(OC)c(OC)c(OC)c2)C4=O)cc(OC)c1OC | 0.673 µM | 0.147 | 0.413 | – | 1.84 | 1.51 | 0.684 | – | 1.36 | 0.177 | – | 0.586 | 0.311 | 0.78 | – | 0.552 | 1.29 | 0.827 | 0.0973 | 0.182
CC(C)(C)C(=O)Nc1cccc2oc(-c3ccccc3)cc12 | > 100 µM | – | > 100 | > 100 | > 100 | – | > 100 | > 100 | > 100 | – | – | – | > 100 | – | – | – | > 100 | – | – | –
CCCCNS(=O)(=O)c1n[nH]c(=O)[nH]c1=O | > 100 µM | – | > 100 | > 100 | > 100 | – | > 100 | – | > 100 | – | – | – | > 100 | – | – | – | > 100 | – | – | –
COC(=O)[C@]12CC[C@@H](C)[C@H](C)[C@@H]1C1=CC[C@@H]3[C@@]4(C)C[C@@H](OC(=O)/C=C/c5ccccc5)[C@H](O)[C@@](C)(CO)[C@@H]4[C@H](O)C[C@@]3(C)[C@]1(C)CC2 | 4.12 µM | 2.45 | 6.05 | 4.7 | 16.6 | 6.33 | 4.18 | – | 11.4 | 1.91 | 2.12 | 3.81 | – | 2.26 | – | 2.83 | 15.5 | 3.51 | – | 1.86
